Legend:
Format in all cases: cell-based
[1] = biological target: T1, human IGF-1R (NIH-3T3 cells over expressing human IGF-1R) (Homo sapiens, UniProt P08069); test: IGF-1R cellular autophosphorylation (DELFIA); conditions: IGF-1 stimulated
T1 construct: expressed in transfected cells; host or cells: NIH-3T3 (mouse fibroblasts)
In short: (§1)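 Receptor-overexpressing NIH-3T3, 10% FBS, 37 °C; cpd 30 uM–1.5 nM × 2 h; stim IGF-1 30 ng/mL (IGF-1R) or insulin 3 ug/mL (IR), 15 min; lysate DELFIA, Eu anti-pTyr; % of stimulated signal.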

[2] = test system: NCI-H929 (multiple myeloma); test: Inhibition of cell proliferation, CellTiter-Glo, NCI-H929; conditions: Homo sapiens, 72 h
In short: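 Cells were grown in medium with 10% FBS at 37° C, 5% CO2. Cell number was read as CellTiter-Glo luminescence (cellular ATP), with untreated wells as control.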

[3] = biological target: T2, IR (NIH-3T3 cells over expressing human IGF-1R or IR) (Homo sapiens, UniProt P06213); test: IR cellular autophosphorylation (DELFIA); conditions: NIH-3T3 cells over expressing IR, insulin stimulated
T2 construct: expressed in transfected cells; host or cells: NIH-3T3 (mouse fibroblasts)
In short: as §1

COLO205 (colon) = test: Inhibition of cell proliferation, CellTiter-Glo, COLO205; conditions: Homo sapiens, COLO 205, 72 h
In short: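 Exponentially growing COLO205 cells in medium with 10% FBS were plated below 2000 cells/well at 37 °C, 5% CO2. Untreated wells served as controls.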

T2 sequence (P06213 28-1382): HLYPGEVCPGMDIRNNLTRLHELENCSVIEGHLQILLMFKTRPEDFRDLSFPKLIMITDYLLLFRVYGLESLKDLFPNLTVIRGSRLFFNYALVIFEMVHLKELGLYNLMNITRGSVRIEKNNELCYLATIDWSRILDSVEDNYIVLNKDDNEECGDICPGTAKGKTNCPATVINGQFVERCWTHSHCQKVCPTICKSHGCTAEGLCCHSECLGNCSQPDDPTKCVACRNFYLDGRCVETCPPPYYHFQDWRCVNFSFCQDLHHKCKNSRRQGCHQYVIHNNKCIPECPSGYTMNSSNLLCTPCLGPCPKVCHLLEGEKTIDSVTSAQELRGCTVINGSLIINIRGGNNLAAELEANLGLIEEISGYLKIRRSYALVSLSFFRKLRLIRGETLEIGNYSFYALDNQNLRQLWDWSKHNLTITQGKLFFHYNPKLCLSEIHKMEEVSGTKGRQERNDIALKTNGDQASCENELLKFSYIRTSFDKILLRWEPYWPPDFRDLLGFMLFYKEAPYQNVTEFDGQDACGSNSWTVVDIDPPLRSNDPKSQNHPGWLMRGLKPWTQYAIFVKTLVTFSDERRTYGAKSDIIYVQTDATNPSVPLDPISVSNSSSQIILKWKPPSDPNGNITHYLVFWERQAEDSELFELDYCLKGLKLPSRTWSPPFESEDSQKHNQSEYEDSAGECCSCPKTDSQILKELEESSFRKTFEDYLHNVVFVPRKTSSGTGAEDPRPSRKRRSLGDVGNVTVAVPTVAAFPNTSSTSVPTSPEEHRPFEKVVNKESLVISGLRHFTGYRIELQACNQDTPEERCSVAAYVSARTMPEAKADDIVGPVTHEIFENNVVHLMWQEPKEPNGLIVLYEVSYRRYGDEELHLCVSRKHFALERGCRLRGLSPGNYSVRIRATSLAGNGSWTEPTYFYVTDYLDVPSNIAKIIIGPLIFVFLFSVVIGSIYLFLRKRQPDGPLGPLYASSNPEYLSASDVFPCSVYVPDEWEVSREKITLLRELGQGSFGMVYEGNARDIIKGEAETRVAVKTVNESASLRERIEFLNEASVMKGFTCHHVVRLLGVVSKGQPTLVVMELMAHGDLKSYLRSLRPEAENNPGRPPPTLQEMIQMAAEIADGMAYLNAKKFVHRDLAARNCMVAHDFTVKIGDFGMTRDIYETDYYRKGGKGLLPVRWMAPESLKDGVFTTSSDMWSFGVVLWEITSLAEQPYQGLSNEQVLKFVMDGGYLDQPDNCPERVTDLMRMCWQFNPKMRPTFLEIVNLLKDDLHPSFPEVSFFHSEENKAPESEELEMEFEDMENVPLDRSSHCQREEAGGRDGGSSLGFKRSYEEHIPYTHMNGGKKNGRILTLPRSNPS
T1 sequence (P08069 31-1367): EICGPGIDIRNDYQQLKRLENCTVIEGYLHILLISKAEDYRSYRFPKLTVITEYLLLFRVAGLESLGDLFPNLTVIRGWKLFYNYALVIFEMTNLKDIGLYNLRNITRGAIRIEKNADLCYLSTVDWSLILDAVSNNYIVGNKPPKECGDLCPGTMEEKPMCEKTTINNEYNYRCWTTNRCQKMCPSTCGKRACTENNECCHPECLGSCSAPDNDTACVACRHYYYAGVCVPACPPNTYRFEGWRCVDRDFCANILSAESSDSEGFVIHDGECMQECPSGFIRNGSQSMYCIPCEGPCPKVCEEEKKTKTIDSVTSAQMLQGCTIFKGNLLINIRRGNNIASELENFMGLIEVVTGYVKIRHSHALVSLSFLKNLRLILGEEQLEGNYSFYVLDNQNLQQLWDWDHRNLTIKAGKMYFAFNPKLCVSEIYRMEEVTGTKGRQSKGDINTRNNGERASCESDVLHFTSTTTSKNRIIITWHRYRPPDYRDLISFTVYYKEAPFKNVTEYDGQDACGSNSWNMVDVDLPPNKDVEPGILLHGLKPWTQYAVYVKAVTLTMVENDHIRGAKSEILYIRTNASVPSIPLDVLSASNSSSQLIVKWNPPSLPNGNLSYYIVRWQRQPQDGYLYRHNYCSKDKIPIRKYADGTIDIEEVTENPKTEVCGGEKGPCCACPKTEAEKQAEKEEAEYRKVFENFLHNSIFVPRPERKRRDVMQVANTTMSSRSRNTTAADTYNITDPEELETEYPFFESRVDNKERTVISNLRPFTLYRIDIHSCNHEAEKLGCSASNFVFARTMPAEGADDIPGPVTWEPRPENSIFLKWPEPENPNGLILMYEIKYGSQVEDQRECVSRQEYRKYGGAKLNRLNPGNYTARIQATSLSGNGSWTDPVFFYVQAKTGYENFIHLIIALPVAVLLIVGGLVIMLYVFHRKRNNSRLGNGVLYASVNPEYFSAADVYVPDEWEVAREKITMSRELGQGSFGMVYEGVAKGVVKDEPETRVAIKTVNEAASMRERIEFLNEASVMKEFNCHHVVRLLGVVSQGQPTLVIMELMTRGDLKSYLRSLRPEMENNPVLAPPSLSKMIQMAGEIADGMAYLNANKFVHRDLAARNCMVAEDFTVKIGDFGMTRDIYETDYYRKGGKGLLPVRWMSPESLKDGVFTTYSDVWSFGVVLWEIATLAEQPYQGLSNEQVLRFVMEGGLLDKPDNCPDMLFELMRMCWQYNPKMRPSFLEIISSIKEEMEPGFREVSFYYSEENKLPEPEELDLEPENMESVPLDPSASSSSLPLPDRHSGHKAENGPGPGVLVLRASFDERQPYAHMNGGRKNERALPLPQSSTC

| Structure (SMILES) | IC50 [1] [nM] | IC50 [2] [nM] | IC50 [3] [nM] | IC50 (COLO205 (colon)) [nM] |
| --- | --- | --- | --- | --- |
| COc1cc(N2CCC(N3CCN(CCF)CC3)CC2)c(OC)cc1Nc1nccc(-c2c(-c3cccc(C(=O)Nc4c(F)cccc4F)c3)nc3ccccn23)n1 [Example 111, N-(2,6-difluorophenyl)-3-[3-(2-{[4-{4-[4-(2-fluoroethyl)-1-piperazinyl]-1-piperidinyl}-2,5-bis(methyloxy)phenyl]amino}-4-pyrimidinyl)imidazo[1,2-a]pyridin-2-yl]benzamide] | < 100 | < 250 | < 100 | 250 to 1000 |
| COc1cc(C2CCN(C3CCN(CCF)CC3)CC2)ccc1Nc1nccc(-c2c(-c3cccc(C(=O)Nc4c(F)cccc4F)c3)nc3ccccn23)n1 [Example 100] | < 100 | 250 to 1000 | < 100 | 250 to 1000 |
| CCOc1cc(N2CCC(N3CCN(CC(F)F)CC3)CC2)ccc1Nc1nccc(-c2c(-c3cccc(C(=O)Nc4c(F)cccc4F)c3)nc3ccccn23)n1 [Example 117, 3-[3-(2-{[4-{4-[4-(2,2-difluoroethyl)-1-piperazinyl]-1-piperidinyl}-2-(ethyloxy)phenyl]-amino}-4-pyrimidinyl)imidazo[1,2-a]pyridin-2-yl]-N-(2,6-difluorophenyl)benzamide] | < 100 | 250 to 1000 | < 100 | > 1000 |
| CCOc1ccc(-c2nc3ccccn3c2-c2ccnc(Nc3ccc(N4CCC(N5CCN(CCF)CC5)CC4)cc3OC)n2)cc1C(=O)Nc1c(F)cccc1F [Example 63, N-(2,6-difluorophenyl)-2-(ethyloxy)-5-[3-(2-{[4-{4-[4-(2-fluoroethyl)-1-piperazinyl]-1-piperidinyl}-2-(methyloxy)phenyl]amino}-4-pyrimidinyl)imidazo[1,2-a]pyridin-2-yl]benzamide] | < 100 | < 250 | < 100 | 250 to 1000 |
| CCOc1cc(N2CCN(CCS(C)(=O)=O)CC2)c(CC)cc1Nc1nccc(-c2c(-c3ccc(OCC)c(C(=O)Nc4c(F)cccc4F)c3)nc3ccccn23)n1 [Example 211, N-(2,6-difluorophenyl)-5-(3-{2-[(5-ethyl-2-(ethyloxy)-4-{4-[2-(methylsulfonyl)ethyl]-1-piperazinyl}phenyl)amino]-4-pyrimidinyl}imidazo[1,2-a]pyridin-2-yl)-2-(ethyloxy)benzamide] | < 100 | < 250 | < 100 | < 250 |
| CCCN1CCN(c2ccc(Nc3nccc(-c4c(-c5cccc(C(=O)Nc6c(F)cccc6F)c5)nc5ccccn45)n3)c(OCC)c2)CC1 [Example 153, N-(2,6-difluorophenyl)-3-[3-(2-{[2-(ethyloxy)-4-(4-propyl-1-piperazinyl)phenyl]amino}-4-pyrimidinyl)imidazo[1,2-a]pyridin-2-yl]benzamide] | 100 to 500 | 250 to 1000 | < 100 | 250 to 1000 |
| CCCc1cc(C2CCN(CCS(C)(=O)=O)CC2)ccc1Nc1nccc(-c2c(-c3ccc(OC)c(C(=O)Nc4c(F)cccc4F)c3)nc3ccccn23)n1 [Example 167, N-(2,6-difluorophenyl)-2-(methyloxy)-5-(3-{2-[(4-{1-[2-(methylsulfonyl)ethyl]-4-piperidinyl}-2-propylphenyl)amino]-4-pyrimidinyl}imidazo[1,2-a]pyridin-2-yl)benzamide] | < 100 | > 1000 | < 100 | > 1000 |
| COc1cc(N2CCC(N3CCN(CCF)CC3)CC2)ccc1Nc1nccc(-c2c(-c3cccc(C(=O)Nc4c(F)cccc4F)c3)nc3c(F)cccn23)n1 [Example 188, N-(2,6-difluorophenyl)-3-[8-fluoro-3-(2-{[4-{4-[4-(2-fluoroethyl)-1-piperazinyl]-1-piperidinyl}-2-(methyloxy)phenyl]amino}-4-pyrimidinyl)imidazo[1,2-a]pyridin-2-yl]benzamide] | < 100 | 250 to 1000 | 100 to 500 | > 1000 |
| COc1cc(C2CCN(CCS(C)(=O)=O)CC2)c(C)cc1Nc1nccc(-c2c(-c3cccc(C(=O)Nc4c(F)cccc4F)c3)nc3ccccn23)n1 [Example 165, N-(2,6-difluorophenyl)-3-(3-{2-[(5-methyl-2-(methyloxy)-4-{1-[2-(methylsulfonyl)ethyl]-4-piperidinyl}phenyl)amino]-4-pyrimidinyl}imidazo[1,2-a]pyridin-2-yl)benzamide] | < 100 | < 250 | < 100 | 250 to 1000 |
| CCOc1cc(N2CCC(CCS(C)(=O)=O)CC2)c(C)cc1Nc1nccc(-c2c(-c3cccc(C(=O)Nc4c(F)cccc4F)c3)nc3ccccn23)n1 [Example 221, N-(2,6-difluorophenyl)-3-(3-{2-[(2-(ethyloxy)-5-methyl-4-{4-[2-(methylsulfonyl)ethyl]-1-piperidinyl}phenyl)amino]-4-pyrimidinyl}imidazo[1,2-a]pyridin-2-yl)benzamide] | < 100 | < 250 | < 100 | 250 to 1000 |

Other lines, results leading:

| IC50 [1] [nM] | IC50 [2] [nM] | IC50 [3] [nM] | IC50 (COLO205 (colon)) [nM] | Structure (SMILES) |
| --- | --- | --- | --- | --- |
| < 100 | < 250 | < 100 | 250 to 1000 | CCOc1ccc(-c2nc3ccccn3c2-c2ccnc(Nc3ccc(C4CCN(CC(C)C)CC4)cc3OC)n2)cc1C(=O)Nc1c(F)cccc1F [Example 161, N-(2,6-difluorophenyl)-2-(ethyloxy)-5-{3-[2-({2-(methyloxy)-4-[1-(2-methylpropyl)-4-piperidinyl]phenyl}amino)-4-pyrimidinyl]imidazo[1,2-a]pyridin-2-yl}benzamide] |
| < 100 | > 1000 | > 500 | > 1000 | CC(C)Cc1cc(N2CCC(N3CCCCC3)CC2)ccc1Nc1nccc(-c2c(-c3cccc(C(=O)Nc4c(F)cccc4F)c3)nc3ccccn23)n1 [Example 42, 3-[3-(2-{[4-(1,4′-bidideridin-1′-yl)-2-(2-methylpropyl)phenyl]amino}-4-pyrimidinyl)imidazo[1,2-a]pyridin-2-yl]-N-(2,6-difluorophenyl)benzamide] |
| < 100 | < 250 | < 100 | 250 to 1000 | COc1cc(N2CCC(N3CCCCC3)CC2)ccc1Nc1nccc(-c2c(-c3ccc(OC)c(C(=O)Nc4c(F)cccc4F)c3)nc3cc(F)ccn23)n1 [Example 198, 5-[3-(2-{[4-(1,4′-bipiperidin-1′-yl)-2-(methyloxy)phenyl]amino}-4-pyrimidinyl)-7-fluoroimidazo[1,2-a]pyridin-2-yl]-N-(2,6-difluorophenyl)-2-(methyloxy)benzamide] |
| < 100 | < 250 | < 100 | < 250 | CCOc1cc(N2CCN(CCS(C)(=O)=O)CC2)ccc1Nc1nccc(-c2c(-c3ccc(OCC)c(C(=O)Nc4c(F)cccc4F)c3)nc3ccccn23)n1 [Example 144, N-(2,6-difluorophenyl)-2-(ethyloxy)-5-(3-{2-[(2-(ethyloxy)-4-{4-[2-(methylsulfonyl)ethyl)-1-piperazinyl}phenyl)amino]-4-pyrimidinyl}imidazo[1,2-a]pyridin-2-yl)benzamide] |
| < 100 | < 250 | < 100 | 250 to 1000 | CCCN1CCC(c2ccc(Nc3nccc(-c4c(-c5ccc(OC)c(C(=O)Nc6c(F)cccc6F)c5)nc5ccccn45)n3)c(OCC)c2)CC1 [Example 154, N-(2,6-difluorophenyl)-5-[3-(2-{[2-(ethyloxy)-4-(1-propyl-4-piperidinyl)phenyl]amino}-4-pyrimidinyl)imidazo[1,2-a]pyridin-2-yl]-2-(methyloxy)benzamide] |
| < 100 | < 250 | < 100 | 250 to 1000 | CCCN1CCC(c2cc(OC)c(Nc3nccc(-c4c(-c5cccc(C(=O)Nc6c(F)cccc6F)c5)nc5ccccn45)n3)cc2C)CC1 [Example 159, N-(2,6-difluorophenyl)-3-[3-(2-{[5-methyl-2-(methyloxy)-4-(1-propyl-4-piperidinyl)phenyl]amino}-4-pyrimidinyl)imidazo[1,2-a]pyridin-2-yl]benzamide] |
| < 100 | < 250 | < 100 | 250 to 1000 | CCCN1CCC(c2ccc(Nc3nccc(-c4c(-c5cccc(C(=O)Nc6c(F)cccc6F)c5)nc5ccccn45)n3)c(OCC)c2)CC1 [Example 155, N-(2,6-difluorophenyl)-3-[3-(2-{[2-(ethyloxy)-4-(1-propyl-4-piperidinyl)phenyl]amino}-4-pyrimidinyl)imidazo[1,2-a]pyridin-2-yl]benzamide] |
| < 100 | < 250 | < 100 | 250 to 1000 | COCCN1CCN(c2ccc(Nc3nccc(-c4c(-c5ccc(OC)c(C(=O)Nc6c(F)cccc6F)c5)nc5ccccn45)n3)c(OC)c2)CC1 [Example 239, N-(2,6-difluorophenyl)-2-(methyloxy)-5-(3-{2-[(2-(methyloxy)-4-{4-[2-(methyloxy)ethyl]-1-piperazinyl}phenyl)amino]-4-pyrimidinyl}imidazo[1,2-a]pyridin-2-yl)benzamide] |
| < 100 | < 250 | < 100 | < 250 | CCc1cc(Nc2nccc(-c3c(-c4ccc(OC)c(C(=O)Nc5c(F)cccc5F)c4)nc4ccccn34)n2)c(OC)cc1N1CCC(CCS(C)(=O)=O)CC1 [Example 207, N-(2,6-difluorophenyl)-5-(3-{2-[(5-ethyl-2-(methyloxy)-4-{4-[2-(methylsulfonyl)ethyl]-1-piperidinyl}phenyl)amino]-4-pyrimidinyl}imidazo[1,2-a]pyridin-2-yl)-2-(methyloxy)benzamide] |
